Measured values: US11420936B2, “Hypoxia inducible factor-2(alpha) inhibitors and their use in the treatment of diseases” (priority 2020, dated 2022)
Read-outs that look alike come from different tables or passages of the source.

Columns and labels:
HIF-2α = HIF-2α (Homo sapiens (Human), UniProt Q99814); assay: cell-based; format: cell-based
Experimental: The ability of the disclosed compounds to inhibit HIF-2α was measured by determining VEGF expression in 786-O cells. About 7500 786-O cells were seeded into each well of a 96-well, white, clear bottom plate (07-200-566, Fisher Scientific) with 200 ul growth medium. Four hours later, compounds were dispensed into wells by Tecan D300e digital dispenser with starting concentration of 10 uM and ½ log of dilution down to 1 nM as final concentration. Each concentration of treatment was performed in duplicate. About 20 hours later, medium was removed and fresh medium was added, followed by compounds treatment as described above. 24 hours later, cell culture medium was collected to determine VEGF concentration using an ELISA kit (R&D systems, cat #DVE00) following the manufacturer's instruction.
The EC50 is calculated by GraphPad Prism using the dose-response-inhibition (four parameter) equation. The plate with cells was then subjected to CellTiter-Glo luminescence cell viability assay (Promega) to determine the effect of these compounds on cell numbers after the above treatment.

HIF-2α/ARNT dimerization = HIF-2α/ARNT dimerization (Homo sapiens (Human), UniProt Q99814); assay: Co-immunoprecipitation assay for inhibition of HIF-2α and ARNT dimerization in PASMC and HPAEC; format: cell-based
HIF-2α/ARNT dimerization, sequence (Q99814 whole entry): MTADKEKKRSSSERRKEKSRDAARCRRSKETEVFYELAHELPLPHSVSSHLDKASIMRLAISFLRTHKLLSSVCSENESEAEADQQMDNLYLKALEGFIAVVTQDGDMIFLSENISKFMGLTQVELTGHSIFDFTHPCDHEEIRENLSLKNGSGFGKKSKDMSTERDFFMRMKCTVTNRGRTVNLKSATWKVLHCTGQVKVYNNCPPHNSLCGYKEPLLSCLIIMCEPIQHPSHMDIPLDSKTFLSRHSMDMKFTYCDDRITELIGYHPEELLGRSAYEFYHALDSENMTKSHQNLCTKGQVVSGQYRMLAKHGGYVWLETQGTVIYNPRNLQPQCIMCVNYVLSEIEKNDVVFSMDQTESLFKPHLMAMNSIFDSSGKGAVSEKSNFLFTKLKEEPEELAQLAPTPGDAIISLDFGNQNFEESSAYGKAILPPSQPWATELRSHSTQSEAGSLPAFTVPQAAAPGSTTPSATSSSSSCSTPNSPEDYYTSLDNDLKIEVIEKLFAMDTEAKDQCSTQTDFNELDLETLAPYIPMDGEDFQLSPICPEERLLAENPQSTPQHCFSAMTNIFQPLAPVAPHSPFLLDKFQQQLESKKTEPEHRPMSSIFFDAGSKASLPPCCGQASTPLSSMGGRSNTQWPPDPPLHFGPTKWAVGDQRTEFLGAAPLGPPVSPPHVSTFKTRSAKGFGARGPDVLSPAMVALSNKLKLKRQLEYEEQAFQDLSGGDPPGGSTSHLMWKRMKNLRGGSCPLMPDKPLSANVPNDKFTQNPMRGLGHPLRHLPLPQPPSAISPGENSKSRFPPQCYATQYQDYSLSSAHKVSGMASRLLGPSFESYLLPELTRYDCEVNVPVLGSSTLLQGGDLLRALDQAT
Experimental: FIG. 1 provides results of a co-immunoprecipitation assay for measuring inhibition of HIF-2α and ARNT dimerization in Primary Pulmonary Artery Smooth Muscle Cells (PASMC) and Human Pulmonary Artery Endothelial Cells (HPAEC).
Primary Pulmonary Artery Smooth Muscle Cells (PASMC, ATCC #PCS-100-023) were cultured in Vascular Cell Basal Medium (ATCC #PCS-100-030) supplemented with Vascular Smooth Muscle Cell Growth Kit (ATCC #PCS-100-042). Primary Pulmonary Artery Endothelial Cells (HPAEC, ATCC #PCS-100-022) were cultured in Vascular Cell Basal Medium (ATCC #PCS-100-030) supplemented with Endothelial Cell Growth Kit-BBE (ATCC #PCS-100-040). 0.5×10^6 cells were seeded into 6-well cell culture plates (Corning #3736) in 2 mL of media and cultured in a 37° C. cell culture incubator with atmospheric levels of oxygen and 5% CO2 overnight. The following day, cells were cultured in normoxia condition (atmospheric levels of oxygen and 5% CO2) or in hypoxia condition (1% O2 and 5% CO2) and treated with dimethyl sulfoxide (DMSO) or Compound 24a at 0.001, 0.01, 0.1, and 1 μM for 24 h.
After treatment, cells were washed with ice-cold PBS (containing compounds as in treatment step). […] Supernatant (cell lysate) was transferred to a new tube and protein concentration was measured by BCA protein assay. […]
Cell lysates were also analyzed by immunoblot (Western analysis). […]

[1] = inhibition of VEGF expression in 786-O cells, ELISA of culture medium, read-out: EC50

HIF-2α, sequence (Q99814 whole entry): as above

SMILES | EC50 (HIF-2α; [1]) [nM] | also measured
N#Cc1cc(F)cc(Oc2ccc3c4c2C2(CC2)CC4(O)C(F)(F)C3(F)F)c1 (stereo not shown) [Compound 9, 3-fluoro-5-((3,3,4,4-tetrafluoro-2a-hydroxy-2,2a,3,4-tetrahydrospiro[cyclopenta[cd]indene-1,1′-cyclopropan]-7-yl)oxy)benzonitrile] | 170 | –
CC1(F)CC2(O)c3c(ccc(Oc4cc(F)cc(C#N)c4)c31)C(F)(F)C2(F)F (stereo not shown) [Compound 12, 3-fluoro-5-((1,3,3,4,4-pentafluoro-2a-hydroxy-1-methyl-2,2a,3,4-tetrahydro-1H-cyclopenta[cd]inden-7-yl)oxy)benzonitrile] | 100 | –
N#Cc1cc(F)cc(Oc2ccc3c4c2[C@@H](F)[C@@H](F)[C@]4(O)C(F)(F)C3(F)F)c1 [Compound 24a, 3-fluoro-5-(((1R,2S,2aS)-1,2,3,3,4,4-hexafluoro-2a-hydroxy-2,2a,3,4-tetrahydro-1H-cyclopenta[cd]inden-7-yl)oxy)benzonitrile] | 2 | Disruption of HIF-2α/ARNT dimerization at 0.01 μM (HIF-2α/ARNT dimerization; 0.01 μM, PASMC/HPAEC under hypoxia condition (1% O2)): efficiently disrupt the HIF-2α/ARNT dimerization; Disruption of HIF-2α/ARNT dimerization (HIF-2α protein co-precipitated with ARNT) (HIF-2α/ARNT dimerization; PASMC and HPAEC, 0.001, 0.01, 0.1 and 1 μM for 24 h, FIG. 1): reduced in the lysate of cells treated with Compound 24a in a dose-dependent manner
N#Cc1cc(F)cc(Oc2ccc3c4c2C(F)CC4(N)C(F)(F)C3(F)F)c1 (stereo not shown) [Compound 14, 3-((2a-amino-1,3,3,4,4-pentafluoro-2,2a,3,4-tetrahydro-1H-cyclopenta[cd]inden-7-yl)oxy)-5-fluorobenzonitrile] | 630 | –
N#Cc1cc(F)cc(Oc2ccc3c4c2[C@@H](F)C[C@]4(O)C(F)(F)C3(F)F)c1 [Compound 5, 3-fluoro-5-(((1S,2aR)-1,3,3,4,4-pentafluoro-2a-hydroxy-2,2a,3,4-tetrahydro-1H-cyclopenta[cd]inden-7-yl)oxy)benzonitrile] | 6 | –
N#Cc1cc(F)cc(Oc2ccc3c4c2CCC4(O)C(F)(F)C3(F)F)c1 (stereo not shown) [Compound 13, 3-fluoro-5-((3,3,4,4-tetrafluoro-2a-hydroxy-2,2a,3,4-tetrahydro-1H-cyclopenta[cd]inden-7-yl)oxy)benzonitrile] | 330 | –
[2H]C1([2H])[C@@]2(O)c3c(ccc(Oc4cc(F)cc(C#N)c4)c3[C@@]1([2H])F)C(F)(F)C2(F)F [Compound 21, 3-fluoro-5-(((1S,2aR)-1,3,3,4,4-pentafluoro-2a-hydroxy-2,2a,3,4-tetrahydro-1H-cyclopenta[cd]inden-7-yl-1,2,2-d3)oxy)benzonitrile] | – | EC50 (HIF-2α): 6 nM
OC12CC(F)c3c(Oc4cncc(F)c4)ccc(c31)C(F)(F)C2(F)F (stereo not shown) [Compound 8, 1,3,3,4,4-pentafluoro-7-((5-fluoropyridin-3-yl)oxy)-1,2,3,4-tetrahydro-2aH-cyclopenta[cd]inden-2a-ol] | 320 | –
CC1(O)CC2(O)c3c(ccc(Oc4cc(F)cc(C#N)c4)c31)C(F)(F)C2(F)F (stereo not shown) [Compound 11, 3-fluoro-5-((3,3,4,4-tetrafluoro-1,2a-dihydroxy-1-methyl-2,2a,3,4-tetrahydro-1H-cyclopenta[cd]inden-7-yl)oxy)benzonitrile] | > 5000 | –
CC1CC2(O)c3c(ccc(Oc4cc(F)cc(C#N)c4)c31)C(F)(F)C2(F)F (stereo not shown) [Compound 10, 3-fluoro-5-((3,3,4,4-tetrafluoro-2a-hydroxy-1-methyl-2,2a,3,4-tetrahydro-1H-cyclopenta[cd]inden-7-yl)oxy)benzonitrile] | 410 | –
N#Cc1cc(F)cc(Oc2ccc3c4c2C(F)(F)CC4(F)C(F)(F)C3(F)F)c1 (stereo not shown) [Compound 15, 3-fluoro-5-((1,1,2a,3,3,4,4-heptafluoro-2,2a,3,4-tetrahydro-1H-cyclopenta[cd]inden-7-yl)oxy)benzonitrile] | > 5000 | –
N#Cc1cc(F)cc(Oc2ccc3c4c2C(F)CC4(O)C(F)(F)C3(F)F)c1 (stereo not shown) [Compound 4, 3-fluoro-5-((1,3,3,4,4-pentafluoro-2a-hydroxy-2,2a,3,4-tetrahydro-1H-cyclopenta[cd]inden-7-yl)oxy)benzonitrile] | 10 | –
C=C1C[C@@]2(O)c3c(ccc(Oc4cc(F)cc(C#N)c4)c31)C(F)(F)C2(F)F [Compound 23a, (R)-3-fluoro-5-((3,3,4,4-tetrafluoro-2a-hydroxy-1-methylene-2,2a,3,4-tetrahydro-1H-cyclopenta[cd]inden-7-yl)oxy)benzonitrile] | 7 | –
C=C1CC2(O)c3c(ccc(Oc4cc(F)cc(C#N)c4)c31)C(F)(F)C2(F)F (stereo not shown) [Compound 1, 3-fluoro-5-((3,3,4,4-tetrafluoro-2a-hydroxy-1-methylene-2,2a,3,4-tetrahydro-1H-cyclopenta[cd]inden-7-yl)oxy)benzonitrile] | 13 | –
N#Cc1cc(F)cc(Oc2ccc3c4c2[C@H](F)C[C@]4(O)C(F)(F)C3(F)F)c1 [Compound 7, 3-fluoro-5-(((1R,2aR)-1,3,3,4,4-pentafluoro-2a-hydroxy-2,2a,3,4-tetrahydro-1H-cyclopenta[cd]inden-7-yl)oxy)benzonitrile] | 2100 | –
N#Cc1cc(F)cc(Oc2ccc3c4c2CC(F)(F)C4(O)CC3F)c1 (stereo not shown) [Compound 19, 3-fluoro-5-((1,3,3-trifluoro-2a-hydroxy-2,2a,3,4-tetrahydro-1H-cyclopenta[cd]inden-5-yl)oxy)benzonitrile] | 4100 | –
N#Cc1cc(F)cc(Oc2ccc3c4c2[C@@H](F)[C@H](F)[C@]4(O)C(F)(F)C3(F)F)c1 [Compound 24b, 3-fluoro-5-(((1R,2R,2aS)-1,2,3,3,4,4-hexafluoro-2a-hydroxy-2,2a,3,4-tetrahydro-1H-cyclopenta[cd]inden-7-yl)oxy)benzonitrile] | 11 | –
